Data taken from patent US20130136772A1, “REGULATION OF IMMUNE RESPONSE BY COLOCYNTHIN AND/OR ITS DERIVATIVES” (priority 2010, published 2013).

Experiments:
IL-1 beta = assay: In vivo IL-1 beta estimation in serum of LPS challenged mice; set-up: species or system balb/c mice; conditions: 1, 2.5, 5 and 10 mg/kg oral for 6 days, LPS 1 mg/kg i.v., serum 90 min after LPS
Method: (§1) Invivo experiments were carried out using balb/c mice that were orally administrated with graded oral doses of AD-B-63B (1, 2.5, 5 and 10 mg/kg) for 6 days and challenged with LPS. Nitric oxide (NO) is an important mediator of diverse physiologic and pathologic processes, including many inflammatory diseases [Abramson S B, Amin A R, Clancy R M, Attur M, (2001). The role of nitric oxide in tissue destruction. Best Practice & Research Clinical Rheumatology; 15: 831-845]. Several lines of evidence implicate NO in the pathogenesis of inflammation. For example, rodents in animal models of arthritis generate abundant quantities of NO, as reflected in high levels of serum and urinary NO that develop in association with disease manifestations [Stefanovic-Racic M, Meyers K, Meschter C, Coffey J W, Hoffman R A, Evans C H, (1994). Monomethyl arginine, an inhibitor of nitric oxide synthase, suppresses the development of adjuvant arthritis in rats. Arthritis & Rheumatism; 37: 1062-1069.] [McCartney-Francis N, Allen J B, Mizel D E, Albina J E, Xie Q W, Nathan C F, Wahl S M, (1993). Suppression of arthritis by an inhibitor of nitric oxide synthase. Journal of Experimental Medicine; 178: 749-754.] [Weinberg J B, (1998). […] TNF-α, IL-1 beta and Nitric oxide production was evaluated by a commercial ELISA kits (R&D Systems) in serum from AD-B-63B treated mice, 90 min after LPS injection.

Nitric oxide (NO) = assay: In vivo nitric oxide estimation in serum of LPS challenged mice; set-up: species or system balb/c mice; conditions: 1, 2.5, 5 and 10 mg/kg oral for 6 days, LPS 1 mg/kg i.v., serum 90 min after LPS
Method: as §1

[1] = test system: macrophage phagocytic response; assay: Clearance rate of carbon particles from the circulation (phagocytic index, in vivo); set-up: species or system mice
Method: K., Sharma, M. L., Kaul, A and Khajuria, A. (1986) Immunomodulating agents of plant origin. 1. Preliminary screening. Journal of Ethnopharmacology. 18, 133-141.] Blood samples were collected before and at intervals varying between 2 and 90 min after carbon injection. An aliquot (10 μL) of blood samples were lysed with 2mL of 0.1% acetic acid and the transparency determined spectrophotometrically at 675 nm (Uvikon 810, spectrophotometer, Kontron Ltd., Switzerland) (Hudson and Hay, 1980). AD-B-63B was administered orally for 7 days and 30 min prior to the carbon injection. The rate of carbon clearance termed as phagocytic index was calculated (Table 4).

CC(=O)OC(C)(C)/C=C/C(=O)[C@](C)(O)[C@H]1[C@H](O)C[C@@]2(C)[C@@H]3CC=C4[C@@H](C=C(O[C@@H]5O[C@H](CO)[C@@H](O)[C@H](O)[C@H]5O)C(=O)C4(C)C)[C@]3(C)C(=O)C[C@]12C [AD-B-63B, 2-O-β-D-glucopyranosyl cucurbitacin E]
Level of serum IL-1 beta (IL-1 beta): significant reduction
Level of serum NO (Nitric oxide (NO)): significant reduction
percent decrease in phagocytic index ([1]; 1 mg/kg): (14.28%↓)
Phagocytic index [in vivo study] Mean ± S.E. ([1]; 1 mg/kg orally for 7 days): 1.08 ± 0.09
percent decrease in phagocytic index ([1]; 5 mg/kg): (26.98%↓)
Phagocytic index [in vivo study] Mean ± S.E. ([1]; 5 mg/kg orally for 7 days): 0.92 ± 0.04
percent decrease in phagocytic index ([1]; 10 mg/kg): (26.19%↓)
Phagocytic index [in vivo study] Mean ± S.E. ([1]; 10 mg/kg orally for 7 days): 0.93 ± 0.07
decrease in phagocytic index ([1]; dose range of 1-10 mg/kg, oral for 7 days): 14.28-26.19%
